{"source": "patent US9695155B2", "about": "“Herbicidal substituted pyrimidinyloxy benzene compounds” (E. I. DU PONT DE NEMOURS AND COMPANY, priority 2013, dated 2017)", "assay_in_all_cases": "Test E postemergence", "key": {"[1]": {"system": "wild poinsettia", "type": "in vivo, Euphorbia heterophylla", "procedure,_shortened": "(§1)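 Test chemicals formulated in a non-phytotoxic solvent mixture containing a surfactant were applied preemergence to seeds in silt loam soil or postemergence to plants at the 1- to 4-leaf stage in potting mix. After 14 to 21 days in a greenhouse, injury was visually rated against controls on a 0-100 scale (0 = no effect, 100 = complete control).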"}, "[2]": {"system": "waterhemp_RES1 (ALS & Triazine resistant common waterhemp)", "type": "in vivo, Amaranthus rudis", "procedure,_shortened": "as §1"}, "[3]": {"system": "waterhemp_RES2 (ALS & HPPD resistant common waterhemp)", "type": "in vivo, Amaranthus rudis", "procedure,_shortened": "as §1"}, "[4]": {"system": "waterhemp", "type": "in vivo, Amaranthus rudis", "procedure,_shortened": "as §1"}, "[5]": {"system": "sandbur", "type": "in vivo, Cenchrus echinatus", "procedure,_shortened": "as §1"}, "[6]": {"system": "dayflower", "type": "in vivo, Commelina virginica", "procedure,_shortened": "as §1"}, "[7]": {"system": "field bindweed", "type": "in vivo, Convolvulus arvensis", "procedure,_shortened": "as §1"}, "[8]": {"details": "Postemergence, 31 g ai/ha, scale 0 to 100"}, "[9]": {"details": "Postemergence, 62 g ai/ha, scale 0 to 100"}, "[10]": {"details": "Postemergence, 125 g ai/ha, scale 0 to 100"}, "[11]": {"details": "postemergence, 8 g ai/ha, scale 0 to 100, 0 no effect, 100 complete control"}, "[12]": {"details": "postemergence, 16 g ai/ha, scale 0 to 100, 0 no effect, 100 complete control"}}}
{"compound": "Clc1cnc(Oc2ccccc2-n2cc(Br)nn2)nc1", "note": "[Compound 223]", "values": [{"measurement": "Plant response rating, Poinsettia, Wild", "setting": "[1]; [8]", "result": 40}, {"measurement": "Plant response rating, Poinsettia, Wild", "setting": "[1]; [9]", "result": 50}, {"measurement": "Plant response rating, Poinsettia, Wild", "setting": "[1]; [10]", "result": 60}, {"measurement": "Plant response rating, Poinsettia, Wild", "setting": "[1]; [11]", "result": 30}, {"measurement": "Plant response rating, Poinsettia, Wild", "setting": "[1]; [12]", "result": 30}, {"measurement": "Plant response rating, Waterhemp_RES1", "setting": "[2]; [8]", "result": 80}, {"measurement": "Plant response rating, Waterhemp_RES1", "setting": "[2]; [9]", "result": 70}, {"measurement": "Plant response rating, Waterhemp_RES1", "setting": "[2]; [10]", "result": 95}, {"measurement": "Plant response rating, Waterhemp_RES1", "setting": "[2]; [11]", "result": 30}, {"measurement": "Plant response rating, Waterhemp_RES1", "setting": "[2]; [12]", "result": 60}, {"measurement": "Plant response rating, Waterhemp_RES2", "setting": "[3]; [8]", "result": 80}, {"measurement": "Plant response rating, Waterhemp_RES2", "setting": "[3]; [9]", "result": 80}, {"measurement": "Plant response rating, Waterhemp_RES2", "setting": "[3]; [10]", "result": 95}, {"measurement": "Plant response rating, Waterhemp_RES2", "setting": "[3]; [12]", "result": 75}, {"measurement": "Plant response rating, Waterhemp", "setting": "[4]; [8]", "result": 70}, {"measurement": "Plant response rating, Waterhemp", "setting": "[4]; [9]", "result": 85}, {"measurement": "Plant response rating, Waterhemp", "setting": "[4]; [10]", "result": 98}, {"measurement": "Plant response rating, Waterhemp", "setting": "[4]; [11]", "result": 60}, {"measurement": "Plant response rating, Waterhemp", "setting": "[4]; [12]", "result": 50}, {"measurement": "Plant response rating, Sandbur", "setting": "[5]; [8]", "result": 0}, {"measurement": "Plant response rating, Sandbur", "setting": "[5]; [9]", "result": 0}, {"measurement": "Plant response rating, Sandbur", "setting": "[5]; [10]", "result": 0}, {"measurement": "Plant response rating, Sandbur", "setting": "[5]; [11]", "result": 0}, {"measurement": "Plant response rating, Sandbur", "setting": "[5]; [12]", "result": 0}, {"measurement": "Plant response rating, Dayflower, VA", "setting": "[6]; [8]", "result": 25}, {"measurement": "Plant response rating, Dayflower, VA", "setting": "[6]; [9]", "result": 55}, {"measurement": "Plant response rating, Dayflower, VA", "setting": "[6]; [10]", "result": 65}, {"measurement": "Plant response rating, Dayflower, VA", "setting": "[6]; [11]", "result": 0}, {"measurement": "Plant response rating, Dayflower, VA", "setting": "[6]; [12]", "result": 0}, {"measurement": "Plant response rating, Field Bindweed", "setting": "[7]; [8]", "result": 35}, {"measurement": "Plant response rating, Field Bindweed", "setting": "[7]; [9]", "result": 50}, {"measurement": "Plant response rating, Field Bindweed", "setting": "[7]; [10]", "result": 50}, {"measurement": "Plant response rating, Field Bindweed", "setting": "[7]; [11]", "result": 20}, {"measurement": "Plant response rating, Field Bindweed", "setting": "[7]; [12]", "result": 20}]}
{"compound": "N#Cc1cccc(Oc2ncc(Cl)cn2)c1-n1cc(OCC(F)(F)F)cn1", "note": "[Compound 274, 3-[(5-chloro-2-pyrimidinyl)oxy]-2-[4-(2,2,2-trifluoroethoxy)-1H-pyrazol-1-yl]benzonitrile]", "values": [{"measurement": "pest or weed control at 31 g/ha", "setting": "[1]; Euphorbia heterophylla, post-emergence, Postemergence, 31 g ai/ha, scale 0 to 100, read-out: Plant response rating, Poinsettia, Wild", "result": 70, "unit": "%"}, {"measurement": "pest or weed control at 62 g/ha", "setting": "[1]; Euphorbia heterophylla, post-emergence, Postemergence, 62 g ai/ha, scale 0 to 100, read-out: Plant response rating, Poinsettia, Wild", "result": 70, "unit": "%"}, {"measurement": "pest or weed control at 125 g/ha", "setting": "[1]; Euphorbia heterophylla, post-emergence, Postemergence, 125 g ai/ha, scale 0 to 100, read-out: Plant response rating, Poinsettia, Wild", "result": 70, "unit": "%"}, {"measurement": "pest or weed control at 8 g/ha", "setting": "[1]; Euphorbia heterophylla, post-emergence, postemergence, 8 g ai/ha, scale 0 to 100, 0 no effect, 100 complete control, read-out: Plant response rating, Poinsettia, Wild", "result": 50, "unit": "%"}, {"measurement": "pest or weed control at 16 g/ha", "setting": "[1]; Euphorbia heterophylla, post-emergence, postemergence, 16 g ai/ha, scale 0 to 100, 0 no effect, 100 complete control, read-out: Plant response rating, Poinsettia, Wild", "result": 65, "unit": "%"}, {"measurement": "Plant response rating, Waterhemp_RES1", "setting": "[2]; [8]", "result": 80}, {"measurement": "Plant response rating, Waterhemp_RES1", "setting": "[2]; [9]", "result": 90}, {"measurement": "Plant response rating, Waterhemp_RES1", "setting": "[2]; [10]", "result": 100}, {"measurement": "Plant response rating, Waterhemp_RES1", "setting": "[2]; [11]", "result": 60}, {"measurement": "Plant response rating, Waterhemp_RES1", "setting": "[2]; [12]", "result": 75}, {"measurement": "pest or weed control at 31 g/ha", "setting": "[3]; Amaranthus tuberculatus, post-emergence, Postemergence, 31 g ai/ha, scale 0 to 100, read-out: Plant response rating, Waterhemp_RES2", "result": 85, "unit": "%"}, {"measurement": "pest or weed control at 62 g/ha", "setting": "[3]; Amaranthus tuberculatus, post-emergence, Postemergence, 62 g ai/ha, scale 0 to 100, read-out: Plant response rating, Waterhemp_RES2", "result": 95, "unit": "%"}, {"measurement": "pest or weed control at 125 g/ha", "setting": "[3]; Amaranthus tuberculatus, post-emergence, Postemergence, 125 g ai/ha, scale 0 to 100, read-out: Plant response rating, Waterhemp_RES2", "result": 100, "unit": "%"}, {"measurement": "pest or weed control at 16 g/ha", "setting": "[3]; Amaranthus tuberculatus, post-emergence, postemergence, 16 g ai/ha, scale 0 to 100, 0 no effect, 100 complete control, read-out: Plant response rating, Waterhemp_RES2", "result": 80, "unit": "%"}, {"measurement": "pest or weed control at 31 g/ha", "setting": "[4]; Amaranthus tuberculatus, post-emergence, Postemergence, 31 g ai/ha, scale 0 to 100, read-out: Plant response rating, Waterhemp", "result": 90, "unit": "%"}, {"measurement": "pest or weed control at 62 g/ha", "setting": "[4]; Amaranthus tuberculatus, post-emergence, Postemergence, 62 g ai/ha, scale 0 to 100, read-out: Plant response rating, Waterhemp", "result": 95, "unit": "%"}, {"measurement": "pest or weed control at 125 g/ha", "setting": "[4]; Amaranthus tuberculatus, post-emergence, Postemergence, 125 g ai/ha, scale 0 to 100, read-out: Plant response rating, Waterhemp", "result": 98, "unit": "%"}, {"measurement": "pest or weed control at 8 g/ha", "setting": "[4]; Amaranthus tuberculatus, post-emergence, postemergence, 8 g ai/ha, scale 0 to 100, 0 no effect, 100 complete control, read-out: Plant response rating, Waterhemp", "result": 70, "unit": "%"}, {"measurement": "pest or weed control at 16 g/ha", "setting": "[4]; Amaranthus tuberculatus, post-emergence, postemergence, 16 g ai/ha, scale 0 to 100, 0 no effect, 100 complete control, read-out: Plant response rating, Waterhemp", "result": 95, "unit": "%"}, {"measurement": "pest or weed control at 31 g/ha", "setting": "[5]; Cenchrus echinatus, post-emergence, Postemergence, 31 g ai/ha, scale 0 to 100, read-out: Plant response rating, Sandbur", "result": 10, "unit": "%"}, {"measurement": "pest or weed control at 62 g/ha", "setting": "[5]; Cenchrus echinatus, post-emergence, Postemergence, 62 g ai/ha, scale 0 to 100, read-out: Plant response rating, Sandbur", "result": 15, "unit": "%"}, {"measurement": "pest or weed control at 125 g/ha", "setting": "[5]; Cenchrus echinatus, post-emergence, Postemergence, 125 g ai/ha, scale 0 to 100, read-out: Plant response rating, Sandbur", "result": 0, "unit": "%"}, {"measurement": "pest or weed control at 8 g/ha", "setting": "[5]; Cenchrus echinatus, post-emergence, postemergence, 8 g ai/ha, scale 0 to 100, 0 no effect, 100 complete control, read-out: Plant response rating, Sandbur", "result": 0, "unit": "%"}, {"measurement": "pest or weed control at 16 g/ha", "setting": "[5]; Cenchrus echinatus, post-emergence, postemergence, 16 g ai/ha, scale 0 to 100, 0 no effect, 100 complete control, read-out: Plant response rating, Sandbur", "result": 0, "unit": "%"}, {"measurement": "pest or weed control at 31 g/ha", "setting": "[6]; Commelina virginica, post-emergence, Postemergence, 31 g ai/ha, scale 0 to 100, read-out: Plant response rating, Dayflower, VA", "result": 20, "unit": "%"}, {"measurement": "pest or weed control at 62 g/ha", "setting": "[6]; Commelina virginica, post-emergence, Postemergence, 62 g ai/ha, scale 0 to 100, read-out: Plant response rating, Dayflower, VA", "result": 40, "unit": "%"}, {"measurement": "pest or weed control at 125 g/ha", "setting": "[6]; Commelina virginica, post-emergence, Postemergence, 125 g ai/ha, scale 0 to 100, read-out: Plant response rating, Dayflower, VA", "result": 70, "unit": "%"}, {"measurement": "pest or weed control at 8 g/ha", "setting": "[6]; Commelina virginica, post-emergence, postemergence, 8 g ai/ha, scale 0 to 100, 0 no effect, 100 complete control, read-out: Plant response rating, Dayflower, VA", "result": 5, "unit": "%"}, {"measurement": "pest or weed control at 16 g/ha", "setting": "[6]; Commelina virginica, post-emergence, postemergence, 16 g ai/ha, scale 0 to 100, 0 no effect, 100 complete control, read-out: Plant response rating, Dayflower, VA", "result": 10, "unit": "%"}, {"measurement": "pest or weed control at 31 g/ha", "setting": "[7]; Convolvulus arvensis, post-emergence, Postemergence, 31 g ai/ha, scale 0 to 100, read-out: Plant response rating, Field Bindweed", "result": 50, "unit": "%"}, {"measurement": "pest or weed control at 62 g/ha", "setting": "[7]; Convolvulus arvensis, post-emergence, Postemergence, 62 g ai/ha, scale 0 to 100, read-out: Plant response rating, Field Bindweed", "result": 70, "unit": "%"}, {"measurement": "pest or weed control at 125 g/ha", "setting": "[7]; Convolvulus arvensis, post-emergence, Postemergence, 125 g ai/ha, scale 0 to 100, read-out: Plant response rating, Field Bindweed", "result": 75, "unit": "%"}, {"measurement": "pest or weed control at 8 g/ha", "setting": "[7]; Convolvulus arvensis, post-emergence, postemergence, 8 g ai/ha, scale 0 to 100, 0 no effect, 100 complete control, read-out: Plant response rating, Field Bindweed", "result": 60, "unit": "%"}, {"measurement": "pest or weed control at 16 g/ha", "setting": "[7]; Convolvulus arvensis, post-emergence, postemergence, 16 g ai/ha, scale 0 to 100, 0 no effect, 100 complete control, read-out: Plant response rating, Field Bindweed", "result": 50, "unit": "%"}]}
